Measurements taken from US12390446B2 (RESEARCH TRIANGLE INSTITUTE, priority 2017, dated 2025).
≈ marks a conversion by molar mass, not a printed value. Where “and” joins values, the source holds several entries; their conditions need not be identical. Equal values may be shown once. Entries after “also recorded” stand apart in the source; their conditions may differ. Read-outs that look alike come from different tables or passages of the source.

Assays:
[1] = molecular target: T1, NPFF1 receptor (human NPFFR1 in CHO-RD-HGA16 cells) (Homo sapiens, UniProt Q9GZQ6); experiment: Calcium mobilization functional Ke assay, NPFF1; type: cell-based; details: for Kb: read-out: NPFF1 Ke; for preference / selectivity for NPFF1 over NPFF2: from calcium mobilization Ke values
T1 construct: expressed in transfected cells
T1 sequence (Q9GZQ6 whole entry): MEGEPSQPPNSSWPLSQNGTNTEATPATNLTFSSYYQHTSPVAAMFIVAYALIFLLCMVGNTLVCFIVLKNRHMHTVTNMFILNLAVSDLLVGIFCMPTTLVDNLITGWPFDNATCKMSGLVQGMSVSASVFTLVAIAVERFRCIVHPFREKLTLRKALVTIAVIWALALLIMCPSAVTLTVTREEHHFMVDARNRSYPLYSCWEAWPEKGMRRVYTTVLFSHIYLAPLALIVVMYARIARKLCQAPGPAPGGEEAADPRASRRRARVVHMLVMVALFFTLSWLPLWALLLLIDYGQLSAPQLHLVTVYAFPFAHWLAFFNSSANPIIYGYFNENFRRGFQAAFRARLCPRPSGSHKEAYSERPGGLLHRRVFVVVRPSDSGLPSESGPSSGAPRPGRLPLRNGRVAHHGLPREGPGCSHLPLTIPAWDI

[2] = molecular target: NPFF2 receptor (human NPFFR2-CHO cells) (Homo sapiens, UniProt Q9Y5X5); experiment: Lance cAMP functional Ke assay, NPFF2; type: cell-based; details: for Kb: Table 5
Chain of NPFF2 receptor (human NPFFR2-CHO cells) (Q9Y5X5 whole entry): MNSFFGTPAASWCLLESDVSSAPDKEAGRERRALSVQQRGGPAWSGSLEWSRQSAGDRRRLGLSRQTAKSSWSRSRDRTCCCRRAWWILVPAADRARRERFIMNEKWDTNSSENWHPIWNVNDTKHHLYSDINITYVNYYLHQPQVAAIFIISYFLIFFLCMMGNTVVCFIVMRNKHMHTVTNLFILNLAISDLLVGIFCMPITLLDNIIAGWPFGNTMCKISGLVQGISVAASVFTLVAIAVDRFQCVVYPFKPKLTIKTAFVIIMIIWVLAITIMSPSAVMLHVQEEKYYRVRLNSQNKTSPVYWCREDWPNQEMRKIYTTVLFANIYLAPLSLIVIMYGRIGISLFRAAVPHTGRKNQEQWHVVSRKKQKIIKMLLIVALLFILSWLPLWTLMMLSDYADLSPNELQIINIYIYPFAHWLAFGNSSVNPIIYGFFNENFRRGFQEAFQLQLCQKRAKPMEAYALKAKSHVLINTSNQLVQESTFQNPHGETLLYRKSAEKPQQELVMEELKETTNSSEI
Protocol: (§1) Kinetic solubility and bidirectional MDCK-MDR1 permeability assays of the compounds were performed by Paraza Pharma Inc. (Montreal, Canada) according to their standard protocols.
(§2) cAMP assay. Stable human NPFFR1-CHO (ES-491-C) and NPFFR2-CHO (ES-490-C) cell lines were purchased from PerkinElmer and used with the Lance@ Ultra kit (TRF0262) to detect cAMP accumulation in low volume 96-well plates. Stimulation buffer containing 1× HBSS, 5 mM HEPES, 0.1% BSA stabilizer, and 0.5 mM IBMX was prepared and titrated to 7.4 at room temperature.
(§3) A single concentration of each test compound was prepared at 4× the desired final concentration in 2% DMSO/stimulation buffer and 5 μL was added to the assay plate.
(§4) Cells were lifted with versene and spun at 270 g for 10 minutes. The cell pellet was resuspended in stimulation buffer and 4,000 cells (10 μL) were added to each well. After incubating for 30 min at RT, Eu-cAMP tracer and uLIGHT-anti-cAMP working solutions were added per the manufacturer's instructions. After incubation at RT for 1 hour, the TR-FRET signal (ex 337 nm) was read on a CLARIOstar multimode plate reader (BMG Biotech, Cary NC).
(§5) Fluorescence values at 665 nm were plotted against the log of compound concentration using a nonlinear regression analysis to generate EC50 values (GraphPad Prism, GraphPad Software, Inc., San Diego CA). Ke values were calculated using the same equation as described in the calcium mobilization methods.

[3] = molecular target: T2, NPFF1 receptor (CHO-hNPFFR1 membranes) (Homo sapiens, UniProt Q9GZQ6); experiment: Radioligand binding assay, [125I]NPFF, NPFF1
T2 construct: purchased PerkinElmer RBHNF1M400UA; host or cells: CHO cell membranes
T2 sequence (Q9GZQ6 whole entry): as the sequence (Q9GZQ6 whole entry) above
Protocol: (§6) Radioligand binding assay. Binding assays were performed according to PerkinElmer's protocol in a final volume of 500 μL of assay buffer (50 mM Tris-HCl, 1 mM MgCl2, 60 mM NaCl, 0.5% BSA, pH 7.4). […] After incubating at 27° C. for 120 minutes, the binding assay was terminated by vacuum filtration onto Unifilter GF/C glass-fiber filters (pre-soaked in 0.1% PEI) using a Brandel (Gaithersburg, MD, USA) 96-well harvester, followed by three washes with ice-cold wash buffer (50 mM Tris-HCl, 0.1% BSA, pH 7.4). The filter plate was dried for 1 hr at 55° C. Microscint 20 (50 μL) was added to each well and filter-bound radioactivity was counted on a Packard TopCount NXT microplate scintillation and luminescence counter.
(§7) Data were fit to a one site (fit Ki) competitive binding model, log EC50=log(10^log Ki*(1+RadioligandNM/HotKdNM)), to generate Ki values for the test compounds using GraphPad Prism (GraphPad Software, Inc., San Diego CA).

[4] = molecular target: T3, NPFF2 receptor (CHO-hNPFFR2 membranes) (Homo sapiens, UniProt Q9Y5X5); experiment: Radioligand binding assay, [125I]NPFF, NPFF2
T3 construct: purchased PerkinElmer RBHNF2M400UA; host or cells: CHO cell membranes
T3 sequence (Q9Y5X5 whole entry): as the sequence (Q9Y5X5 whole entry) above
Protocol: as §6, §7

Sprague-Dawley rats = experiment: Fentanyl-induced hyperalgesia model in rats (von Frey paw withdrawal threshold); type: in vivo, rat; details: day 1 after fentanyl, i.p., cumulative doses 3.2-32 mg/kg
Kinetic solubility assay = type: physicochemical
Protocol: as §1
Kinetic solubility assay. A 10 μL of test compound stock solution (10 mM DMSO) was combined with 490 μL of PBS (potassium phosphate monobasic 1 mM, sodium phosphate dibasic 3 mM and sodium chloride 155 mM buffer). The solution was agitated on a VX-2500 multi-tube vortexer (VWR) for 2 hours at room temperature. Following agitation, the sample was filtrated on a glass-fiber filter (1 μm) and the eluate was diluted 200-fold with a mixture of acetonitrile: water (1:1). On each experimental occasion, nicardipine and imipramine were assessed as reference compounds for low and high solubility, respectively. All samples were assessed in triplicate and analyzed by LC-MS/MS using electrospray ionization against standards prepared in the same matrix.

MDCK-MDR1 cells = experiment: Bidirectional MDCK-MDR1 permeability assay; type: in vitro ADME; details: for BBB permeability / rate B to A / rate apical (A) to basolateral (B): MDCK-MDR1; for Pgp substrate: from efflux ratio
Protocol: as §1
(§8) Bidirectional MDCK-MDR1 permeability assay. MDCK-mdr1 cells at passage 5 were seeded onto permeable polycarbonate supports in 12-well Costar@ Transwell® plates and allowed to grow and differentiate for 3 days. On day 3, culture medium (DMEM supplemented with 10% FBS) was removed from both sides of the transwell inserts and cells were rinsed with warm HBSS. After the rinse step, the chambers were filled with warm transport buffer (HBSS containing 10 mM HEPES, 0.25% BSA, pH 7.4) and the plates were incubated at 37° C. for 30 min prior to TEER (Trans Epithelial Electric Resistance) measurements.
(§9) The buffer in the donor chamber (apical side for A-to-B assay, basolateral side for B-to-A assay) was removed and replaced with the working solution (10 μM test article in transport buffer). The plates were then placed at 37° C. under light agitation. At designated time points (30, 60 and 90 min), an aliquot of transport buffer from the receiver chamber was removed and replenished with fresh transport buffer. Samples were quenched with ice-cold ACN containing internal standard and then centrifuged to pellet protein. Resulting supernatants are further diluted with 50/50 ACN/H2O(H2O only for Atenolol) and submitted for LC-MS/MS analysis. Reported apparent permeability (Papp) values were calculated from single determination. Atenolol and propranolol were tested as low and […] permeability references.
(§10) The apparent permeability (Papp, measured in cm/s) of a compound is determined according to the following formula:
(§11) [formula] • dQ/dt is the net rate of appearance in the receiver compartment • A is the area of the Transwell measured in cm^2 (1.12 cm^2) • Ci is the initial concentration of compound added to the donor chamber • 60 is the conversion factor for minutes to seconds. In Vivo Pharmacology.

[5] = molecular target: NPFF1 receptor (human NPFFR1-CHO cells) (Homo sapiens, UniProt Q9GZQ6); experiment: Lance cAMP functional Ke assay, NPFF1; type: cell-based; details: for Kb: Table 5
Chain of NPFF1 receptor (human NPFFR1-CHO cells) (Q9GZQ6 whole entry): as the sequence (Q9GZQ6 whole entry) above
Protocol: as §1, §2, §3, §4, §5

[6] = molecular target: T4, NPFF2 receptor (human NPFFR2 in CHO-RD-HGA16 cells) (Homo sapiens, UniProt Q9Y5X5); experiment: Calcium mobilization functional Ke assay, NPFF2; type: cell-based
T4 construct: expressed in transfected cells
T4 sequence (Q9Y5X5 whole entry): as the sequence (Q9Y5X5 whole entry) above

P-gp (MDR1) = experiment: Bidirectional MDCK-MDR1 permeability assay; type: in vitro ADME; details: dog, MDCK-MDR1, pH 7.4; read-out: efflux ratio (PB→A/PA→B)
Protocol: as §1, §8, §9, §10, §11

[7] = Table 1, mean ± SEM, apparent dissociation constant vs NPFF
[8] = Table 5, [125I]NPFF displacement
[9] = Table 6, MDCK-MDR1, 10 μM test article

SMILES: CCCCCNC(=O)[C@@H]1C[C@H](NCc2ccc(OC)cc2)CN1Cc1ccccc1Cl [Compound 16, (2S,4S)-1-[(2-Chlorophenyl)methyl]-4-{[(4-methoxyphenyl)methyl]amino}-N-pentylpyrrolidine-2-carboxamide]
- Hill slope of NPFF + compound curve, calcium mobilization, NPFF1 cells [1]: 1.7
- Kb [1, 7]: 720 ± 10 nM
- Kb ([1]; calcium mobilization assay): 720 nM
- preference / selectivity for NPFF1 over NPFF2 [1]: > 4 fold
- Hill slope of NPFF + compound curve, cAMP assay, NPFF2 cells [2]: 1.3
- Kb [2]: 2150 nM
- Ki [3, 8]: 890 ± 50 nM
- Ki [4, 8]: 1440 nM
- effect on PWT (Sprague-Dawley rats): dose-dependently increased PWT
- solubility (Kinetic solubility assay): good and moderate
- kinetic solubility (Kinetic solubility assay; Mean±% CV, free base): 146.8 ± 6.9 µM (≈ 65.2 µg/mL)
- solubility (Kinetic solubility assay; Table 6, kinetic solubility in PBS, free base, Mean ± % CV): 146.8 ± 6.9 µM (≈ 65.2 µg/mL)
- BBB permeability (MDCK-MDR1 cells): moderate
- rate B to A (MDCK-MDR1 cells): 6.7e-06 cm/s
- rate apical (A) to basolateral (B) (MDCK-MDR1 cells): 7.6e-06 cm/s
- Papp A-to-B (MDCK-MDR1 cells; [9]): 7.6 10^−6 cm/sec
- Papp B-to-A (MDCK-MDR1 cells; [9]): 6.7 10^−6 cm/sec
- Efflux ratio (MDCK-MDR1 cells; Table 6, PB→A/PA→B): 0.9
- Pgp substrate (MDCK-MDR1 cells): not Pgp substrates
- Hill slope of NPFF + compound curve, cAMP assay, NPFF1 cells [5]: 1.3
- Kb [5]: 340 ± 80 nM
- Hill slope of NPFF + compound curve, calcium mobilization, NPFF2 cells [6]: 1.1
- Kb ([6]; Table 1, mean ± SEM, apparent dissociation constant vs NPFF, read-out: NPFF2 Ke): 3090 nM
- NPFF2 Ke ([6]; calcium mobilization assay): 3,090 nM

SMILES: COc1ccc(CN[C@H]2C[C@@H](C(=O)NCCc3ccccc3)N(Cc3ccccc3Cl)C2)cc1 [Compound 24, (2S,4S)-1-[(2-Chlorophenyl)methyl]-4-{[(4-methoxyphenyl)methyl]amino}-N-(2-phenylethyl)pyrrolidine-2-carboxamide]
- Kb [1, 7]: 850 ± 140 nM
- NPFF1 Ke ([1]; Table 4, mean ± SEM): 850 ± 140 nM
- Calcium mobilization assay Ke NPFF1 ([1]; Table 5): 850 ± 140 nM
- Kb ([1]; calcium mobilization assay): 850 nM
- Kb [2]: 3790 nM
- Ki [3, 8]: 710 ± 20 nM
- Ki [4, 8]: 1230 nM
- Kb [5]: 770 ± 120 nM
- Kb ([6]; read-out: Calcium mobilization assay Ke NPFF2): > 10000 nM
- Kb ([6]; read-out: NPFF2 Ke): > 10000 nM and 9390 nM

SMILES: COc1ccc(CCNC(=O)[C@@H]2C[C@H](NCc3ccc(OC)cc3)CN2Cc2ccccc2Cl)cc1 [Compound 26, (2S,4S)-1-[(2-Chlorophenyl)methyl]-N-[2-(4-methoxyphenyl)ethyl]-4-{[(4-methoxyphenyl)methyl]amino}pyrrolidine-2-carboxamide]
- Kb [1, 7]: 670 ± 60 nM
- Kb ([1]; calcium mobilization assay): 670 nM
- Kb [2]: 2560 nM
- Ki [3, 8]: 920 ± 30 nM
- Ki [4, 8]: 1460 nM
- Kb ([5]; footnote c: pre-incubation of antagonist and receptor 1 hour): 570 ± 150 nM
- Kb ([6]; Table 1, footnote c: pre-incubation of antagonist and test compound 45 min or 1 hr, read-out: NPFF2 Ke): 1750 nM

SMILES: COc1ccc(CN[C@H]2C[C@@H](C(=O)NCCc3ccc([N+](=O)[O-])cc3)N(Cc3ccccc3Cl)C2)cc1 [Compound 33]
- Hill slope of NPFF + compound curve, calcium mobilization, NPFF1 cells [1]: 1.4
- Kb ([1]; calcium mobilization assay): 245 nM and 250 nM
- preference / selectivity for NPFF1 over NPFF2 [1]: ~3 fold
- type of antagonism in curve-shift assays ([1]; standard incubation, competitive profile with longer incubations): insurmountable antagonism
- Hill slope of NPFF + compound curve, cAMP assay, NPFF2 cells [2]: 1
- Ki [3]: 610 ± 30 nM
- Ki [4]: 1670 nM
- effect on PWT (Sprague-Dawley rats): dose-dependently increased PWT
- solubility (Kinetic solubility assay): moderate
- efflux ratio at 90 min, 10 μM (P-gp (MDR1)): 1.3
- BBB permeability (MDCK-MDR1 cells): moderate
- rate B to A (MDCK-MDR1 cells): 3.6e-06 cm/s
- rate apical (A) to basolateral (B) (MDCK-MDR1 cells): 2.7e-06 cm/s
- Pgp substrate (MDCK-MDR1 cells): not Pgp substrates; also recorded: not a Pgp substrate
- Hill slope of NPFF + compound curve, cAMP assay, NPFF1 cells [5]: 1.4
- Hill slope of NPFF + compound curve, calcium mobilization, NPFF2 cells [6]: 1.4

SMILES: COc1ccc(CN[C@H]2C[C@@H](C(=O)NCCc3ccc(F)c(F)c3)N(Cc3ccccc3Cl)C2)cc1 [Compound 34, (2S,4S)-1-[(2-Chlorophenyl)methyl]-N-[2-(3,4-difluorophenyl)ethyl]-4-{[(4-methoxyphenyl)methyl]amino}pyrrolidine-2-carboxamide]
- Kb [1, 7]: 610 ± 130 nM
- Kb ([1]; calcium mobilization assay): 610 nM
- Kb [2]: 2160 nM
- Ki [3, 8]: 560 ± 40 nM
- Ki [4, 8]: 1490 nM
- Kb [5]: 570 ± 170 nM
